# Data as given in US11607422B2, “Uttroside B and derivatives thereof as therapeutics for hepatocellular carcinoma” (Rajiv Gandhi Centre for Biotechnology, an Autonomous …, priority 2016, dated 2023).
# Where two headings read alike, the source gives them in different places.
# What was measured:
# [1] = system: PARP and caspase 9 in HepG2 cells; assay: Western blot of PARP and caspase 9 cleavage with inhibition of autophagy; type: cell-based, human; settings: for effect of autophagy inhibitor on Uttroside B-induced caspase 9 activation: HepG2, Western blot; for effect of autophagy inhibitor on Uttroside B-induced cleavage of PARP: HepG2, pretreatment with inhibitor
# Experimental: Western blot analysis. Approximately 0.5×10^6 cells were grown on 60 mm culture plates and exposed to drugs as indicated for the desired time. The cells were then scraped out, washed in ice cold 1× PBS and pelleted down at 13000 rpm for 2 min. The pelleted cells were suspended in 150 μL of ice-cold whole cell lysis buffer[(20 mMTris of pH 7.4, 250 mM NaCl, 2 mM EDTA, 0.1% Triton, 1 mM DTT (1,4-dithiothreitol), 0.5 mM PMSF, 4 mM sodium orthovanadate, aprotinin (5 mg m/L) and leupeptin (5 mg m/L)] and kept in ice for 30 min, with intermittent vortexing every 5 min. After incubation, the lysate was centrifuged at 13000 rpm for 10 min at 4° C. and the supernatant was collected. The total protein content in the lysate was estimated by Bradford's method, and was then denatured by boiling with 5× loading dye before separating the proteins by SDSpolyacrylamidegel electrophoresis (SDS-PAGE). Following electrophoresis, the polyacrylamide gel and a PVDF membrane were equilibrated with Towbins buffer (1 L, 25 mM Tris, 192 mM glycine, 20% (v/v) methanol (pH 8.3) for 15-30 min and the separated proteins were electro-transferred to PVDF membrane (Hybond-P, GE Healthcare Life science) using Bio-Rad Mini PROTEAN III wet blot apparatus at 100 V for 2 h at cold conditions. After the transfer, the membrane was rinsed with TBS-T (20 mM Tris pH 7.5, 150 mM NaCl, 0.1% Tween 20) buffer and stained with Ponceau-S to ensure uniform transfer. After washing off the Ponceau stain with TBST, the membrane was exposed to 5% fat free milk in TBST buffer for 1 h at room temperature to block the nonspecific binding of antibodies, followed by overnight incubation with the primary antibody [1:1000 dilution] in 3% BSA in TBST buffer at 4° C. Excess antibody was washed off with TBST buffer and incubated with corresponding secondary antibody [1:5000 dilution] coupled with horse radish peroxidase (HRP) in 5% fat free milk in TBST buffer. The bands were visualized using enhanced chemiluminescence kit (Millipore, St Charles, Mo., United States) following manufacturer's protocol.
# HepG2 was transiently transfected with Beclin siRNA and control siRNA using Lipofectamine LTX Plus reagent kit according to manufacturer's protocol (Invitrogen, USA). 0.35×10^6cells per well were seeded in a six well tissue culture plate containing 2 ml antibiotic-free normal growth medium supplemented with FBS and the cells were incubated to attain 60% confluency. Beclin siRNA duplex solution (Solution A) was added directly to the dilute transfection reagent (LP LTX plus reagent) (Solution B). The solution was mixed gently by pipetting up and down and incubated for 45 minutes at room temperature. The cells were washed gently with 2 ml of transfection medium (optiMEM medium). […]
# [2] = system: HepG2 cells; assay: MTT assay of Uttroside B with autophagy inhibitor; type: cell-based, human; settings: 3 MA 1 mM, 72 h
# [3] = system: LC3 in HepG2 cells; assay: Autophagy flux (LC3I to LC3II conversion) with Bafilomycin; type: cell-based, human; settings: HepG2, LC3 II accumulation
# Experimental: Concentration dependent effect of BafilomycinAl on the endogenous conversion of LC3I to LC3II in HepG2 cells. Cells were treated with Bafilomycin Al at different concentration and the whole cell lysate was resolved on a 15% gel and immunoblotted against LC3 antibody. Uttroside B is an autophagy inducer in HepG2 cells as analysed by autophagy flux using Bafilomycin Al. […] The increase in LC3 II could not be considered as a fool proof of autophagic induction because a blockage in any step leading from autophagosome maturation to its fusion with lysosomes could cause its accumulation. So, the effect of Uttroside B in HepG2 cells were analyzed for autophagy flux, a more accurate read out of autophagy on co-treatment with Bafilomycin, an autophagy-lysosome inhibitor. Bafilomycin A, blocks autophagy by blocking the fusion of autophagosome with lysosome which cause the accumulation of autophagosome or LC3. First, the concentration of Bafilomycin Al required for saturating the blockage of autophagy-lysosome fusion was standardized. The efficacy of Bafilomycin Al, in terms of blocking autophagosome degradation in HepG2, was found peaked at 10 nM, beyond which no further accumulation of LC3 II was noted, which matched with the earlier reports.^32,37,38 […]
# [4] = literature ref 9; cell line not stated; cited from earlier work
# [5] = system: U937 leukemia cell line; settings: literature ref 14; read-out: IC50, cytotoxicity against U937 leukemia cell line; cited from earlier work
# [6] = system: HepG2 cells; settings: literature ref 14; read-out: IC50 against HepG2 cells; cited from earlier work
# [7] = system: human cancer cells; settings: literature ref 22; cited from earlier work
# [8] = system: HepG2 cells; assay: Cell cycle analysis by flow cytometry (propidium iodide); type: cell-based, human; settings: HepG2, 25 μM, 24 h
# Experimental: FIGS. 3A-3F show Uttroside B induces caspase-dependent apoptosis leading to PARP cleavage in HepG2 cells while being independent of cell cycle. FIGS. 3A-3E are images of Western blots showing caspase activation in HepG2 cells. Whole-cell extracts were prepared after treating HepG2 cells with indicated concentrations of Uttroside B for 48 h, the whole cell lysate was resolved on a 15% gel and subjected to western blotting using antibodies against the caspases 8, 9 & 7 detected by ECL. HepG2 cells were treated with Uttroside B for 48 h at different concentrations and the whole cell lysate was resolved on a 10% gel, immunoblotted against anti-PARP and detected by ECL. […] HepG2 cells were treated with Uttroside B for 48 h, stained with propidium iodide and the cell cycle analysis was done using fluorescence activated cell sorter. Curcumin 25 μM (24 h) is used as positive control.
# Flow cytometry: Cell cycle analysis helps in distinguishing the distribution of a population of cells to the different stages of the cycle. Cell cycle analysis using flow cytometry was performed to investigate the cell cycle arrest induced by Uttroside B. Cell cycle analysis is performed by quantitative measurement of nuclear DNA content in a cell by staining DNA with propidium iodide. […]
# [9] = literature refs 3, 25; cited from earlier work
# [10] = system: hepatocellular carcinoma; settings: cited from earlier work
# [11] = system: HepG2 cells; assay: MTT cell viability assay in HepG2 cells; type: cell-based, human; settings: Homo sapiens, HepG2, 72 h, read-out: IC50, cytotoxicity towards HepG2 cells
# Experimental: Stocks of crude extracts and isolated compound of S. nigrum was prepared in DMSO for the in vitro studies and stored at −20° C. The DMSO concentration in all studies, including controls, was ≤0.2%. Cell viability assay was performed after 72 h of drug treatment while whole cell lysate preparation and cell cycle analysis were done after 24 h and 48 h of drug treatment. For studying NF-κB and AP-1, Uttroside B was incubated for 2 h before extraction.
# MTT [3-(4,5-dimethylthiazole-2-yl)-2,5-diphenyltetrazolium bromide] assay is a standard colorimetric assay, suitable for analyzing proliferation, viability, and cytotoxicity. Briefly, the HepG2 cells were seeded in 96-well plates (2000 cells/well). […] Fresh media containing 25 μL of MTT solution (5 mg/mL in PBS) and 75 μL of complete medium was added to the wells and incubated for 2 h. At the end of incubation, lysis buffer (20% sodium dodecyl sulphate in 50% dimethyl formamide)was added to the wells (0.1 mL/well) and incubated for another 1 h at 37° C. At the end of incubation, the optical density was measured at 570 nm using ELISA plate reader (Bio-Rad). The relative cell viability in percentage was calculated as (A570 of treated samples/A570 of untreated samples)×100. The IC50 values were extrapolated from polynomial regression analysis of study data.^17
structure (smiles),measurement,setting,value
Cn1cnc(N)c2ncnc1-2 [3-MA],effect of autophagy inhibitor on Uttroside B-induced caspase 9 activation,[1],enhanced
same,effect of autophagy inhibitor on Uttroside B-induced cleavage of PARP,[1],enhanced
same,effect of autophagy inhibitor on Uttroside B-induced cytotoxicity,[2],significantly enhanced
CO/C1=C\C(C)=C\[C@@H](C)[C@@H](O)[C@@H](C)C/C(C)=C/C=C/[C@H](OC)[C@@H]([C@@H](C)[C@@H](O)[C@H](C)[C@@]2(O)C[C@@H](O)[C@H](C)[C@@H](C(C)C)O2)OC1=O [Bafilomycin Al],effect of autophagy inhibitor on Uttroside B-induced caspase 9 activation,[1],enhanced
same,effect of autophagy inhibitor on Uttroside B-induced cleavage of PARP,[1],enhanced
same,concentration at which blocking of autophagosome degradation peaked,[3],10 nM
C[C@@H]1CC[C@@]2(OC1)O[C@H]1C[C@H]3[C@@H]4CC[C@H]5C[C@@H](O[C@@H]6O[C@H](CO)[C@H](O[C@@H]7O[C@H](CO)[C@@H](O)[C@H](O[C@@H]8OC[C@@H](O)[C@H](O)[C@H]8O)[C@H]7O[C@@H]7O[C@H](CO)[C@@H](O)[C@H](O)[C@H]7O)[C@H](O)[C@H]6O)CC[C@]5(C)[C@H]4CC[C@]3(C)[C@H]1[C@@H]2C [Degalactotigonin],cytotoxicity,[4],0.25 µM
C[C@H](CC[C@@]1(O)O[C@H]2C[C@H]3[C@@H]4CC[C@H]5C[C@@H](O[C@@H]6O[C@H](CO)[C@H](O[C@@H]7O[C@H](CO)[C@@H](O)[C@H](O[C@@H]8OC[C@@H](O)[C@H](O)[C@H]8O)[C@H]7O[C@@H]7O[C@H](CO)[C@H](O)[C@H](O)[C@H]7O)[C@H](O)[C@H]6O)CC[C@]5(C)[C@H]4CC[C@]3(C)[C@H]2[C@@H]1C)CO[C@@H]1O[C@H](CO)[C@@H](O)[C@H](O)[C@H]1O [Parvispinoside B],IC50,[5],0.5 µM
same,IC50,[6],> 100 µM
"C[C@H]1CC[C@@]2(OC1)O[C@H]1C[C@H]3[C@@H]4CC[C@@H]5C[C@@H](O)C[C@@H](O[C@@H]6OC[C@@H](O)[C@H](O)[C@H]6O[C@@H]6O[C@@H](C)[C@H](O)[C@@H](O)[C@H]6O)[C@]5(C)[C@H]4CC[C@]3(C)[C@H]1[C@@H]2C [RCE-4, (1β,3β,5β,25S)-spirostan-1,3-diol1-[α-L-rhamnopyranosyl-(1→2)-β-Dxylopyranoside]]",growth inhibition and apoptosis,[7],induce growth inhibition and apoptosis in human cancer cells
"COc1cc(/C=C/C(=O)CC(=O)/C=C/c2ccc(O)c(OC)c2)ccc1O [curcumin, reference compound]",effect on cell cycle (positive control),[8],readily induced cell cycle arrest at G2/M
C[C@@H]1CC[C@@]2(OC1)O[C@H]1C[C@H]3[C@@H]4CC=C5C[C@@H](O)CC[C@]5(C)[C@H]4CC[C@]3(C)[C@H]1[C@@H]2C [diosgenin],effect on cell cycle,[9],block cell cycle in G0/G1 phase
C[C@@H]1CC[C@@]2(OC1)O[C@H]1C[C@H]3[C@@H]4CC[C@@H]5C[C@@H](O)CC[C@]5(C)[C@H]4CC[C@]3(C)[C@H]1[C@@H]2C [smilagenin],effect on cell cycle,[9],block cell cycle in G0/G1 phase
CNC(=O)c1cc(Oc2ccc(NC(=O)Nc3ccc(Cl)c(C(F)(F)F)c3)cc2)ccn1 [sorafenib],prolongation of survival rate,[10]; HCC patients,up to 20%
same,side effects,[10]; reported,severe side effects
same,IC50,[11],5.8 µM
C[C@@H]1CC[C@@]2(OC1)O[C@H]1C[C@H]3[C@@H]4CC[C@H]5C[C@@H](O)CC[C@]5(C)[C@H]4CC[C@]3(C)[C@H]1[C@@H]2C [tigogenin],effect on cell cycle,[9],no effect on cell cycle
